Measured values as given in patent publication US20250332173A1, “COMPOUNDS AND METHODS FOR MODULATING NUCLEIC ACID SPLICING” (REMIX THERAPEUTICS INC., priority 2021, published 2025).
Where two headings read alike, the source gives them in different places.

How the values were obtained:
SMN2 mRNA = test: RT-qPCR splicing assay, SMN2 canonical junction (CJ) mRNA; assay type: cell-based, human; settings: Homo sapiens
Method in brief: (§1)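 Read-out is canonical exon-exon junction mRNA quantified by RT-qPCR against a GAPDH, GUSB or PPIA control. Cells (A673 or K562) received compound for 24 h, top final dose 10 uM in an 11-point 3-fold series.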

Target C [1] = test: RT-qPCR splicing assay panel, Target C canonical junction (CJ) mRNA; assay type: cell-based, human; settings: Homo sapiens
Method in brief: as §1

[2] = tested on: K562 (human chronic myelogenous leukemia) cells; test: Cell Titer Glo 2.0 cell viability assay; assay type: cell-based; settings: Homo sapiens, K562, 72 h, K562 cells, 72 hours, Cell Titer Glo 2.0; read-out: K562 GI50
Target C [3] = test: HiBiT protein abundance assay, Target C (Promega Nano-Glo HiBiT Lytic Detection System, knock-in K562 cell line); assay type: cell-based, human; settings: Homo sapiens, K562, 24 h, HiBiT K562 cell line, 24 hours, top dose 10 μM; read-out: Effect on protein abundance, Target C (IC50 category)
Method in brief: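 HiBiT knock-in K562 cells (10,000/well) were treated for 24 h at 37 °C with a 10-point 3-fold dilution series, top final concentration 10 μM, DMSO ≤0.25%. Lytic HiBiT luminescence was read, normalized to unmodified K562 and DMSO-treated controls, and IC50 was interpolated from a four-parameter logistic fit.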

[4] = canonical junction qPCR panel, Table 5, read-out: SMN2 (decrease in CJ mRNA levels, IC50)
[5] = canonical junction qPCR panel, Table 5, read-out: Target C (decrease in CJ mRNA levels, IC50)
[6] = Table 5 panel, canonical junction qPCR, compound concentration having 50% response in CJ decrease, read-out: SMN2 IC50 (decrease in CJ mRNA levels)
[7] = Table 5 panel, canonical junction qPCR, compound concentration having 50% response in CJ decrease, read-out: Target C IC50 (decrease in CJ mRNA levels)

Row | Compound | IC50 (SMN2 mRNA; [4]) [nM] | IC50 (Target C [1]; [5]) [nM] | GI50 [2] [nM] | IC50 (Target C [3]) [nM] | IC50 (SMN2 mRNA; [6]) [nM] | IC50 (Target C [1]; [7]) [nM]
1 | Cc1c(O)c(-c2ccc3c(=O)n([C@H]4CCNC4)ccc3n2)cc2cn(C)nc12 [Compound 1449, 2-(6-hydroxy-2,7-dimethyl-indazol-5-yl)-6-[(3S)-pyrrolidin-3-yl]-1,6-naphthyridin-5-one] | < 100 | > 10000 | 100 to 1000 | 1000 to 10000 | – | –
2 | CN1CCC(Nc2ccc3c(=O)n(-c4ccc5cn(C)nc5c4)cnc3c2)CC1 [Compound 203] | – | – | > 10000 | > 10000 | > 10000 | > 10000
3 | Cc1cn2cc(-c3ncc4c(=O)n(C5CCNC5)ccc4n3)cc(F)c2n1 (stereo not shown) [Compound 1215] | – | – | 1000 to 10000 | 1000 to 10000 | < 100 | > 10000
4 | Cc1cn2cc(-c3ccc4c(=O)n(C5CCNCC5)ccc4n3)cc(C#N)c2n1 [Compound 1297] | < 100 | 100 to 1000 | 100 to 1000 | 100 to 1000 | – | –
5 | Cc1c(O)c(-c2ncc3c(=O)n([C@@H]4CCN[C@H](C)C4)ccc3n2)cc2cn(C)nc12 [Compound 1434, 2-(6-hydroxy-2,7-dimethyl-indazol-5-yl)-6-(2-methyl-4-piperidyl)pyrido[4,3-d]pyrimidin-5-one] | < 100 | 1000 to 10000 | 100 to 1000 | 1000 to 10000 | – | –
6 | Cc1cn2cc(-c3ccc4c(=O)n(C5CCNCC5)ccc4n3)c(O)cc2n1 [Compound 1240] | 100 to 1000 | > 10000 | 1000 to 10000 | > 10000 | – | –
7 | Cc1c(O)c(-c2ccc3c(=O)n(C4CCNCC4)cc(C)c3n2)cc2cn(C)nc12 [Compound 1284] | < 100 | 100 to 1000 | < 100 | 100 to 1000 | – | –
8 | Cc1c(O)c(-c2ncc3c(=O)n(C4CCNC4)ccc3n2)cc2cn(C)nc12 (stereo in doubt) [Compound 1439, (6R)-2-(6-hydroxy-2,7-dimethyl-indazol-5-yl)-6-pyrrolidin-3-yl-pyrido[4,3-d]pyrimidin-5-one] | < 100 | > 10000 | 100 to 1000 | > 10000 | – | –
9 | Cc1c(O)c(-c2ncc3c(=O)n(C4CCNC(C)(C)C4)ccc3n2)cc2cn(C)nc12 (stereo not shown) [Compound 1442] | < 100 | 1000 to 10000 | 100 to 1000 | 100 to 1000 | – | –
10 | Cc1cc(-c2cc3ccn(C4CCN(C5COC5)CC4)c(=O)c3cn2)cc2cn(C)nc12 [Compound 1209, 6-(2,7-dimethyl-2H-indazol-5-yl)-2-(1-(oxetan-3-yl)piperidin-4-yl)-2,7-naphthyridin-1(2H)-one-1] | – | – | 100 to 1000 | 100 to 1000 | 100 to 1000 | 100 to 1000
11 | Cc1cn2cc(-c3cc4ccn(C5CCNCC5)c(=O)c4cn3)nc(C)c2n1 [Compound 1205, 6-(2,8-dimethylimidazo[1,2-a]pyrazin-6-yl)-2-(piperidin-4-yl)-2,7-naphthyridin-1(2H)-one] | – | – | 100 to 1000 | 100 to 1000 | < 100 | 100 to 1000
12 | Cc1cn2nc(-c3cc4ccn(C5CCNCC5)c(=O)c4cn3)cc(C)c2n1 [Compound 1198, 6-(2,8-dimethylimidazo[1,2-b]pyridazin-6-yl)-2-(piperidin-4-yl)-2,7-naphthyridin-1(2H)-one] | – | – | 100 to 1000 | 100 to 1000 | 100 to 1000 | 100 to 1000
13 | CCN1CCC(n2ccc3cc(-c4cc(C)c5nn(C)cc5c4)ncc3c2=O)CC1 [Compound 1207, 6-(2,7-dimethyl-2H-indazol-5-yl)-2-(1-ethylpiperidin-4-yl)-2,7-naphthyridin-1(2H)-one] | – | – | 1000 to 10000 | 1000 to 10000 | < 100 | 1000 to 10000
